In assay [1] the target is TrkA (Homo sapiens (Human), UniProt P04629). The experiment in a line: Measurement of TrkA enzyme-inhibiting activity (LanthaScreen TR-FRET kinase assay). To be noted: final ATP 150 μM, read-out: TrkA inhibitory activity (IC50; μM). In kind it is biochemical. As for the experimental part: TrkA-inhibiting activity was measured according to the following method using LanthaScreen™ kinase assay reagents (Invitrogen; Fluorescein-Poly GT, LanthaScreen™ Tb-PY20 and TR-FRET Dilution Buffer), TrkA (Invitrogen), ATP (Sigma-Aldrich), a kinase reaction buffer (50 mM HEPES buffer (Sigma-Aldrich) (pH 7.5) containing 0.01% Brij35 (Sigma-Aldrich), 10 mM MgCl2 (Sigma-Aldrich) and 1 mM EGTA (Sigma-Aldrich)) and 0.5 M EDTA (pH 8.0) (Invitrogen).
The present compound was dissolved in dimethylsulfoxide (hereinafter abbreviated as DMSO) to prepare a 10 mM solution. The test compound at 10 mM was distributed into a 96-well plate and serially diluted with DMSO with the geometrical ratio of 3. The serial dilutions (DMSO solutions) were diluted with the kinase reaction buffer to 20-fold to prepare solutions of the present compound with 5-times concentrations (DMSO concentration: 5%). TrkA was diluted with the kinase reaction buffer to prepare a solution at 38.5 ng/mL (enzyme solution). Adenosine triphosphate (hereinafter abbreviated as ATP) was preliminarily diluted in distilled water to prepare a 10 mM solution which was then divided into containers and stored at −20° C. The 10 mM ATP solution and Fluorescein-Poly GT were diluted in the kinase reaction buffer to prepare a solution containing […] of ATP and 500 nM of Fluorescein-Poly GT (ATP-substrate solution). EDTA (0.5 M; pH 8.0) and LanthaScreen™ Tb-PY20 were diluted in the TR-FRET Dilution Buffer to prepare a solution containing 20 mM of EDTA and 4 nM of LanthaScreen™ Tb-PY20 (detection buffer).
The solutions of the present compound (5 μL/well) and the enzyme solution (10 μL/well) were added to a 96-half well assay plate and the plate was shaken at room temperature for 10 minutes on a plate shaker (IKA™ MTS2/4 digital microplate, IKA Japan K.K.). As a control and a blank, the kinase reaction buffer containing 5% DMSO (5 μL/well) was added in place of the solution of the present compound. As a blank, the kinase reaction buffer (10 μL/well) was added in the place of the enzyme solution. The ATP-substrate solution (10 μL/well) was then added to the plate to initiate kinase reaction and the plate was shaken in the dark at room temperature for 1 hour on the plate shaker (final concentration of TrkA: 15.4 ng/mL, final concentration of the substrate: 200 nM and final concentration of ATP: 150 μM). Kinase reaction was terminated by adding the detection buffer (25 μL/well) to the plate and the plate was shaken in the dark at room temperature for 30 minutes on the plate shaker. On an Analyst GT (Molecular Devices Japan, K.K.) the wells were irradiated with excitation light at 340 nm and the fluorescence intensities at 520 nm and 495 nm were measured. The fluorescence intensity at 520 nm for each well was divided by the fluorescence intensity at 495 nm to calculate the time resolved fluorescence resonance energy transfer (TR-FRET) ratio.
The inhibition rate (%) of the present compound was calculated according to the following Equation 1: Inhibition rate (%)={1−(AX−AB)/(AC−AB)×100 Equation 1
wherein AX: the TR-FRET ratio when the present compound is added;
AB: the TR-FRET of the blank; and
AC: the TR-FRET of the control.
The value for 50% inhibition by the present compound (IC50 value) was calculated from the inhibition curve based on the inhibition rate of the present compound at respective concentrations.

Assay [2] concerns NGF-induced vascular hyper permeability. The experiment in a line: Suppression of rat NGF-induced vascular hyper permeability (in vivo test, Evans Blue). The conditions noted are these: oral, 12 hours after administration, read-out: Rates of Suppression for Vascular Hyper Permeability (%). The protocol: TrkA-inhibiting activity of the present compound was evaluated in vivo. The present compound dissolved in a medium was orally administered (adminstered volume: 5 mL/kg) to male CD(SD)IGS rats (7- to 9-week old, Charles River laboratories Japan, Inc.) shaved on the back. A medium was orally administered (adminstered volume: 5 mL/kg) to the control and normal groups. After 6 or 12 hours of administration, 3 μg/mL of a NGF (Mouse 2.5s, Natural, Invitrogen) solution prepared in 0.1% BSA (Sigma-Aldrich)-containing saline was intracutaneously administered (dose; 50 μL/site) at 3 sites on the back of animals under halothane anesthesia. For the normal group, 0.1% BSA-containing saline was intracutaneously administered (dose; 50 μL/site) at 3 sites on the back. Immediately after intracutaneous administration, 1% Evans Blue (Tokyo Chemical Industry Co., Ltd.) was administered intravenously from tail (adminstered volume: 3 mL/kg). After 10 minutes of administration, the animals were sacrificed by bleeding due to incision of the abdominal aorta. The sites of intracutaneous administration on the back (3 sites) were excised and the skin samples were respectively transferred to the wells in a 48-well plate (Asahi Glass Co., Ltd.). Formamide (0.8 mL/well) was added to the plate and the plate was sealed and incubated overnight at 60° C. The formamide extraction solution (200 μL) was transferred to a 96-well plate and the absorbance (wavelength: 620 nm) of Evans Blue extracted in formamide was measured on an absorbance microplate reader (SpectraMAX 190, Molecular Devices Japan, K.K.). Standard samples of Evans Blue dissolved in formamide (0, 0.78, 1.56, 3.13, 6.25, 12.5, 25 and 50 μg/mL) were measured at the same time for the absorbance (wavelength: 620 nm) to generate a calibration curve. Based on the calibration curve and the absorbances of samples, the concentrations of Evans Blue in the sample was calculated. The concentrations of Evans Blue for three skin samples collected from one aminal were averaged to obtain the vale for the animal. The rate of suppression for rat NGF-induced vascular hyper permeability of the present compound was calculated according to the following Equation 4: Suppression rate (%)=(1−(AX−AN)/(AC−AN)}×100 Equation 4
wherein AX: the concentration of Evans Blue of the test compound (an average value of 3 samples from one animal);
AN: the concentration of Evans Blue of the normal group (an average value of 3 samples from one animal);
AC: the concentration of Evans Blue of the control group (an average value of 3 samples from one animal).

TrkA, sequence (P04629 33-796): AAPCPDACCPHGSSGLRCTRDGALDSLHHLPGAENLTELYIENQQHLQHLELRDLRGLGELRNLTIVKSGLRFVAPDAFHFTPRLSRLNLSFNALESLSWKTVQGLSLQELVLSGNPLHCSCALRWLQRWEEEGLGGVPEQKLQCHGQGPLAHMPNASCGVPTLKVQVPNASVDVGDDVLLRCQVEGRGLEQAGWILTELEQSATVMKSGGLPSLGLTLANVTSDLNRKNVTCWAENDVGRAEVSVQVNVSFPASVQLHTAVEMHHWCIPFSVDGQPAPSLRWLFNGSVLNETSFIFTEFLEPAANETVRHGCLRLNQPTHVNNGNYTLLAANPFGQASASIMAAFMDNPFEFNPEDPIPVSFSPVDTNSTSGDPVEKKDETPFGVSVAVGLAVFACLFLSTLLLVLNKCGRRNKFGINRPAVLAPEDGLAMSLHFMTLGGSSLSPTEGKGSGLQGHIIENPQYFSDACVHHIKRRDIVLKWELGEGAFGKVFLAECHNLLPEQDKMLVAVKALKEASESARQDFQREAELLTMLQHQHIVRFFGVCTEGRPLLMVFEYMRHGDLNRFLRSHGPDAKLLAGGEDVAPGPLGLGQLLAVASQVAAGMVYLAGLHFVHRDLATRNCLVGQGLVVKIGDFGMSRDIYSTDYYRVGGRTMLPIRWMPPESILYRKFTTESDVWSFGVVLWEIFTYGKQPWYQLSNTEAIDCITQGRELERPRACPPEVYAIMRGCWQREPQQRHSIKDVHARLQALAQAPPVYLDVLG

Turning to `Cc1cccc(-c2ncc(C(F)(F)F)cc2NC(=O)Nc2cnc(Oc3ccc(-c4cnc(N5CCCC5=O)s4)cc3)nc2)c1` [Example 57, 1-[2-(3-methylphenyl)-5-(trifluoromethyl)-3-pyridinyl]-3-(2-{4-[2-(2-oxo-1-pyrrolidinyl)-1,3-thiazol-5-yl]phenoxy}-5-pyrimidinyl)urea], in assay [1], the half-inhibitory concentration (IC50) came out at 0.03 µM. Moreover, in assay [2], the inhibition in vivo at 1 mg/kg turned out to be 78%.
The matching figures for `CCNc1ncc(-c2ccc(Oc3ncc(NC(=O)Nc4cc(C(F)(F)F)cnc4Oc4ccccc4)cn3)cc2)s1` [Example 48, 1-(2-{4-[2-(ethylamino)-1,3-thiazol-5-yl]phenoxy}-5-pyrimidinyl)-3-[2-phenoxy-5-(trifluoromethyl)-3-pyridinyl]urea]: 0.12 µM and 71%.
On the same counts, the results for `CCNc1ncc(-c2ccc(Oc3ccc(NC(=O)Nc4cc(C(F)(F)F)cnc4-c4ccc(C)c(C)c4)cn3)cc2)s1` [Example 34, 1-[2-(3,4-dimethylphenyl)-5-(trifluoromethyl)-3-pyridinyl]-3-(6-{4-[2-(ethylamino)-1,3-thiazol-5-yl]phenoxy}-3-pyridinyl)urea] are 0.18 µM and 75%.
The matching figures for `O=C(Nc1cnc(Oc2ccc(-c3cnc(N4CCCC4=O)s3)cc2)nc1)Nc1cc(C(F)(F)F)cnc1-c1ccccc1` [Example 54, 1-(2-{4-[2-(2-oxo-1-pyrrolidinyl)-1,3-thiazol-5-yl]phenoxy}-5-pyrimidinyl)-3-[2-phenyl-5-(trifluoromethyl)-3-pyridinyl]urea]: 0.04 µM and 88%.
Consider `CCCNc1ncc(-c2ccc(Oc3ncc(NC(=O)Nc4cc(C(F)(F)F)ccc4Cl)cn3)cc2)s1` [Example 85-117, 1-[2-chloro-5-(trifluoromethyl)phenyl]-3-(2-{4-[2-(propylamino)-1,3-thiazol-5-yl]phenoxy}-5-pyrimidinyl)urea], for which, in assay [1], the IC50 was found to be 0.02 µM. In addition, the inhibition in vivo at 1 mg/kg in assay [2] is 74%.
On to `CCNc1ncc(-c2ccc(Oc3ncc(NC(=O)Nc4cc(C(F)(F)F)cnc4-c4ccc(C)cc4)cn3)cc2)s1` [Example 23, 1-(2-{4-[2-(ethylamino)-1,3-thiazol-5-yl]phenoxy}-5-pyrimidinyl)-3-[2-(4-methylphenyl)-5-(trifluoromethyl)-3-pyridinyl]urea], for which the IC50 in assay [1] stood at 0.09 µM. For the same compound, in assay [2], the inhibition in vivo at 1 mg/kg was 78%.
